We go through 30 molecules from US20250051347A1, “BIFUNCTIONAL CHIMERIC HETEROCYCLIC COMPOUND AND USE THEREOF AS ANDROGEN RECEPTOR DEGRADER” (Hinova Pharmaceuticals, Inc., priority 2021, published 2025).

A value given as a limit tells only on which side of the number the result lay.

For one test, the target named is T1, androgen receptor (AR) splicing variant AR-v7 (Homo sapiens, UniProt P10275).
T1 construct: The degradation activity of compounds on AR-v7 in 22RV1 cells; host or cells: 22RV1 cells
T1 sequence (P10275 1-644 isoform P10275-3): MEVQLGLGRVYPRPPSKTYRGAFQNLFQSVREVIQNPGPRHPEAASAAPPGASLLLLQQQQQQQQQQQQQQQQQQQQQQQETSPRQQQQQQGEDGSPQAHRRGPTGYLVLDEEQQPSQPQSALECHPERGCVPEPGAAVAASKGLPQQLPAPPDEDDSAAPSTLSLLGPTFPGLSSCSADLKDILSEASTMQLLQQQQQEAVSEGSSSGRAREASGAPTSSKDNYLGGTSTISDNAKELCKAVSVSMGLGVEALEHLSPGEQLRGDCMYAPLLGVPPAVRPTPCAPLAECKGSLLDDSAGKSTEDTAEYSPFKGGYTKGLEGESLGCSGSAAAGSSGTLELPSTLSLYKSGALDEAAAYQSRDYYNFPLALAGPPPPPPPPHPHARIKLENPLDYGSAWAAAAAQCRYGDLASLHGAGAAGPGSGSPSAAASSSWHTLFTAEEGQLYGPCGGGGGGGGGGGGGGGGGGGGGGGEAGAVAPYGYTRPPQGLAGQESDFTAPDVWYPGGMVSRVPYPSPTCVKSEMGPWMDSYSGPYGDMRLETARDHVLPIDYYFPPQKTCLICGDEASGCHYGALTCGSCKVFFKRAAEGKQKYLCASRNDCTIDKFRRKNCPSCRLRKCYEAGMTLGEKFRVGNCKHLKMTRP
Kind of test: Degradation activity on androgen receptor splicing variant AR-v7 in 22RV1 cells (ELISA). The class given is cell-based. Conditions: AR-v7 degradation in 22RV1 cells, 48 h, class symbols.
The term DC50 denotes the concentration at which degradation of the target reaches its halfway point. Lower therefore signals a more potent degrader. With `CC(C)(c1ccc(Oc2cnc(C(O)C3CCC3)nc2)cc1)c1ccc(O[C@H]2C[C@H](Nc3ccc4c(c3)C(=O)N(C3CCC(=O)NC3=O)C4=O)C2)cc1` (stereo partly drawn) [Example 261], the DC50 was below 10 nM.
`CC(C)(c1ccc(Oc2cnc(C(=O)C3CCC3)nc2)cc1)c1ccc(O[C@H]2C[C@H](Nc3ccc4c(c3)C(=O)N(C3CCC(=O)NC3=O)C4=O)C2)cc1` (stereo partly drawn) [Example 262] gave a DC50 of 11 to 100 nM.
Molecule `Cc1noc(-c2ncc(Oc3ccc(C(C)(C)c4ccc(O[C@H]5C[C@@H](Nc6ccc7c(c6)C(=O)N(C6CCC(=O)NC6=O)C7=O)C5)cc4)cc3)cn2)n1` (stereo partly drawn) [Example 263] yielded a DC50 of 11 to 100 nM.
The same measure, in the same setting: under `CC(C)(c1ccc(Oc2cnc(C(F)(F)F)nc2)cc1)c1ccc(O[C@H]2C[C@H](Nc3ccc4c(c3)C(=O)N(C3CCC(=O)NC3=O)C4=O)C2)cc1` (stereo partly drawn) [Example 264] stands 11 to 100 nM.
Molecule `COC(=O)c1ncc(Oc2ccc(C(C)(C)c3ccc(O[C@H]4C[C@H](Nc5ccc6c(c5)C(=O)N(C5CCC(=O)NC5=O)C6=O)C4)cc3)cc2)cn1` (stereo partly drawn) [Example 266, methyl 5-(4-(2-(4-((1r,3r)-3-((2-(2,6-dioxopiperidin-3-yl)-1,3-dioxoisoindolin-5-yl)amino)cyclobutyloxy)phenyl)propan-2-yl)phenoxy)pyrimidin-2-carboxylate] displayed a half-maximal degradation concentration (DC50) of 11 to 100 nM.
Molecule `CC(C)(c1ccc(Oc2cnc(C(=O)O)nc2)cc1)c1ccc(O[C@H]2C[C@H](Nc3ccc4c(c3)C(=O)N(C3CCC(=O)NC3=O)C4=O)C2)cc1` (stereo partly drawn) [Example 267, 5-(4-(2-(4-((1r,3r)-3-((2-(2,6-dioxopiperidin-3-yl)-1,3-dioxoisoindolin-5-yl)amino)cyclobutyloxy)phenyl)propan-2-yl)phenoxy)pyrimidin-2-carboxylic acid] gave a DC50 of 101 to 1000 nM.
As to `CC1(CNc2nccc(COc3ccc(C(C)(C)c4ccc(O[C@H]5C[C@@H](Nc6ccc7c(c6)C(=O)N(C6CCC(=O)NC6=O)C7=O)C5)cc4)cc3)n2)COC1` (stereo partly drawn) [Example 269], the DC50 fell in the range of 101 to 1000 nM.
As for `Cc1noc(C)c1-c1nccc(COc2ccc(C(C)(C)c3ccc(O[C@H]4C[C@H](Nc5ccc6c(c5)C(=O)N(C5CCC(=O)NC5=O)C6=O)C4)cc3)cc2)n1` (stereo partly drawn) [Example 271], the DC50 fell in the range of 11 to 100 nM.
Molecule `CC(C)(c1ccc(OCc2ccnc(-c3cncs3)n2)cc1)c1ccc(O[C@H]2C[C@H](Nc3ccc4c(c3)C(=O)N(C3CCC(=O)NC3=O)C4=O)C2)cc1` (stereo partly drawn) [Example 272] came in with a DC50 of 11 to 100 nM.
Still for that read-out and setting: the value for `CC(C)(c1ccc(OCc2ccnc(-c3cc[nH]n3)n2)cc1)c1ccc(O[C@H]2C[C@@H](Nc3ccc4c(c3)C(=O)N(C3CCC(=O)NC3=O)C4=O)C2)cc1` (stereo partly drawn) [Example 274] was 11 to 100 nM; that for `Cc1nc(-c2cccc(COc3ccc(C(C)(C)c4ccc(O[C@H]5C[C@H](Nc6ccc7c(c6)C(=O)N(C6CCC(=O)NC6=O)C7=O)C5)cc4)cc3)n2)no1` (stereo partly drawn) [Example 283] was 11 to 100 nM.
On the same count and under the same terms, the value for `CC(C)(c1ccc(OCc2nc(-n3nccn3)ccc2F)cc1)c1ccc(O[C@H]2C[C@H](Nc3ccc4c(c3)C(=O)N(C3CCC(=O)NC3=O)C4=O)C2)cc1` (stereo partly drawn) [Example 284] was 11 to 100 nM.
In turn, `CC(C)(c1ccc(OCc2nc(-n3ccnn3)ccc2F)cc1)c1ccc(O[C@H]2C[C@H](Nc3ccc4c(c3)C(=O)N(C3CCC(=O)NC3=O)C4=O)C2)cc1` (stereo partly drawn) [Example 285] came in with a 50% degradation concentration (DC50) of 11 to 100 nM.
For `CC(C)(c1ccc(OCc2ccc(F)c(-n3ccnn3)n2)cc1)c1ccc(O[C@H]2C[C@H](Nc3ccc4c(c3)C(=O)N(C3CCC(=O)NC3=O)C4=O)C2)cc1` (stereo partly drawn) [Example 286], the half-maximal degradation concentration (DC50) was in the range of 11 to 100 nM.
Still for that read-out and setting: the value for `CC(C)(c1ccc(OCc2ccc(F)c(-n3nccn3)n2)cc1)c1ccc(O[C@H]2C[C@H](Nc3ccc4c(c3)C(=O)N(C3CCC(=O)NC3=O)C4=O)C2)cc1` (stereo partly drawn) [Example 287] was 11 to 100 nM; that for `Cc1nc(-c2nccc(Oc3ccc(C(C)(C)c4ccc(O[C@H]5C[C@@H](Nc6ccc7c(c6)C(=O)N(C6CCC(=O)NC6=O)C7=O)C5)cc4)cc3)n2)no1` (stereo partly drawn) [Example 292] was 11 to 100 nM.
On to `Cc1noc(-c2ncc(Oc3ccc(C4(c5ccc(O[C@H]6C[C@H](Nc7ccc8c(c7)C(=O)N(C7CCC(=O)NC7=O)C8=O)C6)cc5)CCCC4)cc3)cn2)n1` (stereo partly drawn) [Example 297], for which the DC50 is below 10 nM.
The molecule `CC(=O)c1nccc(COc2ccc(C(C)(C)c3ccc(N4CCC5(CC4)CN(c4ccc6c(c4)C(=O)N(C4CCC(=O)NC4=O)C6=O)C5)cc3)cc2)n1` (stereo not drawn) [Example 305] yielded a DC50 of 1000 to 5000 nM.
`CC(=O)c1nccc(COc2ccc(C(C)(C)c3ccc(OC[C@H]4CCN4c4ccc5c(c4)C(=O)N(C4CCC(=O)NC4=O)C5=O)cc3)cc2)n1` (stereo partly drawn) [Example 307, 5-((R)-2-((4-(2-(4-((2-acetylpyrimidin-4-yl)methoxy)phenyl)propan-2-yl)phenoxy)methyl)azetidin-1-yl)-2-(2,6-dioxopiperidin-3-yl)isoindolin-1,3-dione] returned a DC50 of 1000 to 5000 nM.
The molecule `CC(C)(c1ccc(C#CCNc2ccc3c(c2)C(=O)N(C2CCC(=O)NC2=O)C3=O)cc1)c1ccc(OCc2ccnc(N3CC4(COC4)C3)n2)cc1` (stereo not drawn) [Example 309, 5-((3-(4-(2-(4-((2-(2-oxa-6-azaspiro[3.3]heptan-6-yl)pyrimidin-4-yl)methoxy)phenyl)propan-2-yl)phenyl)prop-2-yn-1-yl)amino)-2-(2,6-dioxopiperidin-3-yl)isoindolin-1,3-dione] had a DC50 of 11 to 100 nM.
For `CC(C)(c1ccc(OCC#Cc2ccc3c(c2)C(=O)N(C2CCC(=O)NC2=O)C3=O)cc1)c1ccc(OCc2ccnc(N3CC4(COC4)C3)n2)cc1` (stereo not drawn) [Example 310], the DC50 fell in the range of 101 to 1000 nM.
Molecule `CC(C)(c1ccc(OCc2ccnc(N3CC4(COC4)C3)n2)cc1)c1ccc(OC[C@@H]2CCCN2c2ccc3c(c2)C(=O)N(C2CCC(=O)NC2=O)C3=O)cc1` (stereo partly drawn) [Example 313, 5-((S)-2-((4-(2-(4-((2-(2-oxa-6-azaspiro[3.3]heptane-6-yl)pyrimidin-4-yl)methoxy)phenyl)propan-2-yl)phenoxy)methyl)pyrrolidin-1-yl)-2-(2,6-dioxopiperidin-3-yl)isoindolin-1,3-dione] showed a DC50 of 101 to 1000 nM.
Regarding `CC(C)(c1ccc(OCc2ccnc(N3CC4(COC4)C3)n2)cc1)c1ccc(OC[C@H]2CCCN2c2ccc3c(c2)C(=O)N(C2CCC(=O)NC2=O)C3=O)cc1` (stereo partly drawn) [Example 314, 5-((R)-2-((4-(2-(4-((2-(2-oxa-6-azaspiro[3.3]heptan-6-yl)pyrimidin-4-yl)methoxy)phenyl)propan-2-yl)phenoxy)methyl)pyrrolidin-1-yl)-2-(2,6-dioxopiperidin-3-yl)isoindolin-1,3-dione], the DC50 fell in the range of 1000 to 5000 nM.

Staying with this test, now noted: AR-v7 degradation in 22RV1 cells, 48 h, numeric values.
As to `CC(=O)c1nccc(COc2ccc(C(C)(C)c3ccc(OCCCCCCCCOCC4CN(c5ccc6c(c5)C(=O)N(C5CCC(=O)NC5=O)C6=O)C4)cc3)cc2)n1` (stereo not drawn) [Example 298], the DC50 was above 10000 nM.
As for `CC(=O)c1nccc(COc2ccc(C(C)(C)c3ccc(OCCCCCCCCOCCN4CCN(c5ccc6c(c5)C(=O)N(C5CCC(=O)NC5=O)C6=O)CC4)cc3)cc2)n1` (stereo not drawn) [Example 299, 5-(4-(2-((8-(4-(2-(4-((2-acetylpyrimidin-4-yl)methoxy)phenyl)propan-2-yl)phenoxy)octyl)oxy)ethyl)piperazin-1-yl)-2-(2,6-dioxopiperidin-3-yl)isoindolin-1,3-dione], the DC50 was above 10000 nM.
On the same count and under the same terms, the value for `CC(O)c1nccc(COc2ccc(C(C)(C)c3ccc(OCCCCCCCCOCCN4CCN(c5ccc6c(c5)C(=O)N(C5CCC(=O)NC5=O)C6=O)CC4)cc3)cc2)n1` (stereo not drawn) [Example 300] was above 10000 nM.
The molecule `CC(=O)c1nccc(COc2ccc(C(C)(C)c3ccc(OCC4CCN(c5cccc6c5C(=O)N(C5CCC(=O)NC5=O)C6=O)C4)cc3)cc2)n1` (stereo not drawn) [Example 301, 4-(3-((4-(2-(4-((2-acetylpyrimidin-4-yl)methoxy)phenyl)propan-2-yl)phenoxy)methyl)pyrrolidin-1-yl)-2-(2,6-dioxopiperidin-3-yl)isoindolin-1,3-dione] gave a DC50 above 10000 nM.
As for `CC(=O)c1nccc(COc2ccc(C(C)(C)c3ccc(OCC4CCN(c5ccc6c(c5)C(=O)N(C5CCC(=O)NC5=O)C6=O)C4)cc3)cc2)n1` (stereo not drawn) [Example 302, 5-(3-((4-(2-(4-((2-acetylpyrimidin-4-yl)methoxy)phenyl)propan-2-yl)phenoxy)methyl)pyrrolidin-1-yl)-2-(2,6-dioxopiperidin-3-yl)isoindolin-1,3-dione], the DC50 was at least 10000 nM.
Still for that read-out and setting: the value for `CC(=O)c1nccc(COc2ccc(C(C)(C)c3ccc(OCC4CCCN(c5cccc6c5C(=O)N(C5CCC(=O)NC5=O)C6=O)C4)cc3)cc2)n1` (stereo not drawn) [Example 303, 4-(3-((4-(2-(4-((2-acetylpyrimidin-4-yl)methoxy)phenyl)propan-2-yl)phenoxy)methyl)piperidin-1-yl)-2-(2,6-dioxopiperidin-3-yl)isoindolin-1,3-dione] was above 10000 nM; that for `CC(=O)c1nccc(COc2ccc(C(C)(C)c3ccc(OCC4CCCN(c5ccc6c(c5)C(=O)N(C5CCC(=O)NC5=O)C6=O)C4)cc3)cc2)n1` (stereo not drawn) [Example 304, 5-(3-((4-(2-(4-((2-acetylpyrimidin-4-yl)methoxy)phenyl)propan-2-yl)phenoxy)methyl)piperidin-1-yl)-2-(2,6-dioxopiperidin-3-yl)isoindolin-1,3-dione] was above 2500 nM.
